Assay results from PubChem BioAssay AID2060885 (Molecular Pharmacology Branch, DTP, NCI, 2025).

Tested on: NCI-H23 complex spheroids with HUVEC/MSC, viability
Test: Anticancer human tumor NCI-H23 cell line growth inhibition [RAS];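 further: spheroids exposed to compound for 7 days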;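 on viability, T/C: 100% = DMSO vehicle control viability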
Conditions: for IC50: curve of first compound; for viability, T/C: stronger effect = lower value
Outline: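 Tumour cells grown as complex spheroids with HUVEC endothelial cells and mesenchymal stem cells, treated with RAS pathway inhibitor combinations. Each agent spans half-log steps from near clinical Cmax, or 10 microM where Cmax is unknown.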

[1] = second compound 0.000949 µM, first compound 0.000949 µM
[2] = second compound 0.000949 µM, first compound 0.003 µM
[3] = second compound 0.000949 µM, first compound 0.00949 µM
[4] = second compound 0.000949 µM, first compound 0.03 µM
[5] = second compound 0.000949 µM, first compound 0.0949 µM
[6] = second compound 0.000949 µM, first compound 0.3 µM
[7] = second compound 0.003 µM, first compound 0.000949 µM
[8] = second compound 0.003 µM, first compound 0.003 µM
[9] = second compound 0.003 µM, first compound 0.00949 µM
[10] = second compound 0.003 µM, first compound 0.03 µM
[11] = second compound 0.003 µM, first compound 0.0949 µM
[12] = second compound 0.003 µM, first compound 0.3 µM
[13] = second compound 0.00949 µM, first compound 0.000949 µM
[14] = second compound 0.00949 µM, first compound 0.003 µM
[15] = second compound 0.00949 µM, first compound 0.00949 µM
[16] = second compound 0.00949 µM, first compound 0.03 µM
[17] = second compound 0.00949 µM, first compound 0.0949 µM
[18] = second compound 0.00949 µM, first compound 0.3 µM
[19] = second compound 0.03 µM, first compound 0.000949 µM
[20] = second compound 0.03 µM, first compound 0.003 µM
[21] = second compound 0.03 µM, first compound 0.00949 µM
[22] = second compound 0.03 µM, first compound 0.03 µM
[23] = second compound 0.03 µM, first compound 0.0949 µM
[24] = second compound 0.03 µM, first compound 0.3 µM
[25] = second compound 0.0949 µM, first compound 0.000949 µM
[26] = second compound 0.0949 µM, first compound 0.003 µM
[27] = second compound 0.0949 µM, first compound 0.00949 µM
[28] = second compound 0.0949 µM, first compound 0.03 µM
[29] = second compound 0.0949 µM, first compound 0.0949 µM
[30] = second compound 0.0949 µM, first compound 0.3 µM
[31] = second compound 0.3 µM, first compound 0.000949 µM
[32] = second compound 0.3 µM, first compound 0.003 µM
[33] = second compound 0.3 µM, first compound 0.00949 µM
[34] = second compound 0.3 µM, first compound 0.03 µM
[35] = second compound 0.3 µM, first compound 0.0949 µM
[36] = second compound 0.3 µM, first compound 0.3 µM

## C=CC(=O)N1CCN(c2nc(OCC3CCCN3C)nc3c(F)c(-c4nc(N)cc(C)c4C(F)(F)F)c(Cl)cc23)C(C)C1 (stereo unspecified) + CCn1c(-c2cccnc2C(C)OC)c2c3cc(ccc31)N1CCOC(CC(NC(=O)C(C(C)C)N(C)C(=O)C3(F)CCN(C(=O)C#CC(C)(C)N(C)C)CC3)C(=O)N3CCCC(N3)C(=O)OCC(C)(C)C2)C1
Second compound 0.000949 µM
  IC50: < 3.16 nM
Second compound 0.003 µM
  IC50: < 3.16 nM
Second compound 0.00949 µM
  IC50: < 3.16 nM
Second compound 0.03 µM
  IC50: < 3.16 nM
Second compound 0.0949 µM
  IC50: < 3.16 nM
Second compound 0.3 µM
  IC50: < 3.16 nM
Second compound 0.000949 µM, first compound 0.00316 µM
  viability, T/C: 34.7%
Second compound 0.000949 µM, first compound 0.01 µM
  viability, T/C: 35.5%
Second compound 0.000949 µM, first compound 0.0316 µM
  viability, T/C: 24.3%
Second compound 0.000949 µM, first compound 0.1 µM
  viability, T/C: 28.4%
Second compound 0.000949 µM, first compound 0.316 µM
  viability, T/C: 29.2%
Second compound 0.000949 µM, first compound 1 µM
  viability, T/C: 25.6%
Second compound 0.003 µM, first compound 0.00316 µM
  viability, T/C: 33.6%
Second compound 0.003 µM, first compound 0.01 µM
  viability, T/C: 28.5%
Second compound 0.003 µM, first compound 0.0316 µM
  viability, T/C: 25.6%
Second compound 0.003 µM, first compound 0.1 µM
  viability, T/C: 29.4%
Second compound 0.003 µM, first compound 0.316 µM
  viability, T/C: 31.5%
Second compound 0.003 µM, first compound 1 µM
  viability, T/C: 27.6%
Second compound 0.00949 µM, first compound 0.00316 µM
  viability, T/C: 26.8%
Second compound 0.00949 µM, first compound 0.01 µM
  viability, T/C: 26.7%
Second compound 0.00949 µM, first compound 0.0316 µM
  viability, T/C: 37.2%
Second compound 0.00949 µM, first compound 0.1 µM
  viability, T/C: 30.9%
Second compound 0.00949 µM, first compound 0.316 µM
  viability, T/C: 27.7%
Second compound 0.00949 µM, first compound 1 µM
  viability, T/C: 25.9%
Second compound 0.03 µM, first compound 0.00316 µM
  viability, T/C: 30.2%
Second compound 0.03 µM, first compound 0.01 µM
  viability, T/C: 30.5%
Second compound 0.03 µM, first compound 0.0316 µM
  viability, T/C: 35%
Second compound 0.03 µM, first compound 0.1 µM
  viability, T/C: 27.2%
Second compound 0.03 µM, first compound 0.316 µM
  viability, T/C: 27.1%
Second compound 0.03 µM, first compound 1 µM
  viability, T/C: 29.7%
Second compound 0.0949 µM, first compound 0.00316 µM
  viability, T/C: 28.5%
Second compound 0.0949 µM, first compound 0.01 µM
  viability, T/C: 31.4%
Second compound 0.0949 µM, first compound 0.0316 µM
  viability, T/C: 26.9%
Second compound 0.0949 µM, first compound 0.1 µM
  viability, T/C: 27.3%
Second compound 0.0949 µM, first compound 0.316 µM
  viability, T/C: 24.9%
Second compound 0.0949 µM, first compound 1 µM
  viability, T/C: 32.7%
Second compound 0.3 µM, first compound 0.00316 µM
  viability, T/C: 25.8%
Second compound 0.3 µM, first compound 0.01 µM
  viability, T/C: 30%
Second compound 0.3 µM, first compound 0.0316 µM
  viability, T/C: 24.4%
Second compound 0.3 µM, first compound 0.1 µM
  viability, T/C: 26.2%
Second compound 0.3 µM, first compound 0.316 µM
  viability, T/C: 26%
Second compound 0.3 µM, first compound 1 µM
  viability, T/C: 29.3%

## CC1(C)CCC(Nc2ncc(C(F)(F)F)c(-c3c[nH]c4c(P(C)(C)=O)c(C#N)ccc34)n2)CN1 (stereo unspecified) + CCn1c(-c2cccnc2C(C)OC)c2c3cc(ccc31)N1CCOC(CC(NC(=O)C(C(C)C)N(C)C(=O)C3(F)CCN(C(=O)C#CC(C)(C)N(C)C)CC3)C(=O)N3CCCC(N3)C(=O)OCC(C)(C)C2)C1
Second compound 0.000949 µM
  IC50: < 0.949 nM
Second compound 0.003 µM
  IC50: < 0.949 nM
Second compound 0.00949 µM
  IC50: < 0.949 nM
Second compound 0.03 µM
  IC50: < 0.949 nM
Second compound 0.0949 µM
  IC50: < 0.949 nM
Second compound 0.3 µM
  IC50: < 0.949 nM
[1]
  viability, T/C: 26%
[2]
  viability, T/C: 21.2%
[3]
  viability, T/C: 14%
[4]
  viability, T/C: 16.1%
[5]
  viability, T/C: 14.7%
[6]
  viability, T/C: 11.3%
[7]
  viability, T/C: 22.4%
[8]
  viability, T/C: 17.4%
[9]
  viability, T/C: 15.5%
[10]
  viability, T/C: 15.2%
[11]
  viability, T/C: 15%
[12]
  viability, T/C: 11.6%
[13]
  viability, T/C: 23.9%
[14]
  viability, T/C: 17.5%
[15]
  viability, T/C: 15.9%
[16]
  viability, T/C: 15%
[17]
  viability, T/C: 13.1%
[18]
  viability, T/C: 13.2%
[19]
  viability, T/C: 21.9%
[20]
  viability, T/C: 19.2%
[21]
  viability, T/C: 17.8%
[22]
  viability, T/C: 15.7%
[23]
  viability, T/C: 12.4%
[24]
  viability, T/C: 13.3%
[25]
  viability, T/C: 21.8%
[26]
  viability, T/C: 19.2%
[27]
  viability, T/C: 16.8%
[28]
  viability, T/C: 13.8%
[29]
  viability, T/C: 11.8%
[30]
  viability, T/C: 13.2%
[31]
  viability, T/C: 18.8%
[32]
  viability, T/C: 17.9%
[33]
  viability, T/C: 15.3%
[34]
  viability, T/C: 12.3%
[35]
  viability, T/C: 11.3%
[36]
  viability, T/C: 13.7%

## CCc1c2c(nc3ccc(O)cc13)-c1cc3c(c(=O)n1C2)COC(=O)[C@]3(O)CC + CCn1c(-c2cccnc2C(C)OC)c2c3cc(ccc31)N1CCOC(CC(NC(=O)C(C(C)C)N(C)C(=O)C3(F)CCN(C(=O)C#CC(C)(C)N(C)C)CC3)C(=O)N3CCCC(N3)C(=O)OCC(C)(C)C2)C1
Second compound 0.000949 µM
  IC50: < 0.949 nM
Second compound 0.003 µM
  IC50: < 0.949 nM
Second compound 0.00949 µM
  IC50: < 0.949 nM
Second compound 0.03 µM
  IC50: < 0.949 nM
Second compound 0.0949 µM
  IC50: < 0.949 nM
Second compound 0.3 µM
  IC50: < 0.949 nM
[1]
  viability, T/C: 27.9%
[2]
  viability, T/C: 13.4%
[3]
  viability, T/C: 3.4%
[4]
  viability, T/C: 2.46%
[5]
  viability, T/C: 1.53%
[6]
  viability, T/C: 0.79%
[7]
  viability, T/C: 23.4%
[8]
  viability, T/C: 12.6%
[9]
  viability, T/C: 3.29%
[10]
  viability, T/C: 1.82%
[11]
  viability, T/C: 1.53%
[12]
  viability, T/C: 0.91%
[13]
  viability, T/C: 27.1%
[14]
  viability, T/C: 11.9%
[15]
  viability, T/C: 3.95%
[16]
  viability, T/C: 2.01%
[17]
  viability, T/C: 1.54%
[18]
  viability, T/C: 0.96%
[19]
  viability, T/C: 25.5%
[20]
  viability, T/C: 12.3%
[21]
  viability, T/C: 3.53%
[22]
  viability, T/C: 2.17%
[23]
  viability, T/C: 1.25%
[24]
  viability, T/C: 0.77%
[25]
  viability, T/C: 23.6%
[26]
  viability, T/C: 8.82%
[27]
  viability, T/C: 3.56%
[28]
  viability, T/C: 1.45%
[29]
  viability, T/C: 0.88%
[30]
  viability, T/C: 0.84%
[31]
  viability, T/C: 18.7%
[32]
  viability, T/C: 7.22%
[33]
  viability, T/C: 2.67%
[34]
  viability, T/C: 1.54%
[35]
  viability, T/C: 1.11%
[36]
  viability, T/C: 1.43%
